Entries after “also recorded” stand apart in the source; their conditions may differ. Where a SMILES comes first, the peptide text is derived from it. The star is where a group is joined. Cbz = O=C(OCc1ccccc1)*; CH2F = FC*
Tests used:
[1] = tested on: Cc1cc(=O)oc2cc(NC(=O)[C@H](CCCNC(=N)N)NC(=O)[C@H](Cc3ccccc3)NC(=O)OCc3ccccc3)ccc12; assay: purified protein, by the assay type; settings: substrate 2000–4 μM, optimum pH, ± standard deviation, pH 7.0, 37.0 °C
Description: (§3) To determine the kinetic constants, Kcat, KM and Kcat/KM of the activated peptidases against the Z-Phe-Arg-AMC, Z-Gly-Pro-Arg-AMC and Z-Val-Ile-Arg-AMC substrates were used at concentrations of 2000–4 μM over a series of 10 dilutions using enzymes, buffer and assay conditions as described above. The kinetic constants, KM and Vmax, were calculated using the Michaelis–Menten equation (Equation (1)) in a non-linear regression analysis of initial reaction velocity against substrate concentration (built into GraphPad Prism 5). The value of KM can then be fitted to Equation (2) to determine the catalytic constant Kcat. (1) ν=d[P]/dt=Vmax[S]/KM+[S] where ν is the initial reaction velocity, [P] is the concentration of the formed product, [S] is the substrate concentration, Vmax is the maximum rate achieved by the system and KM is the Michaelis–Menten constant, which represents the concentration of substrate at which the reaction has a rate equal to half of Vmax. (2) ν=Kcat[Et]{}[S]/KM+[S] where [Et] is the enzyme concentration and Kcat is the catalytic constant, representing the measure of substrate molecules converted to product by enzyme per second.

FhCB1 = FhCB1 (Fasciola hepatica, UniProt Q8I7B2); assay: Inhibition of recombinant FhCB1, fluorogenic substrate assay (Z-Phe-Arg-AMC); type: biochemical; settings: for inhibition of enzymatic activity (inhibitor screen, Figure 5), in words: FhCB1, inhibitor 1000-15 nM
Sequence of FhCB1 (Q8I7B2 entry or part of it): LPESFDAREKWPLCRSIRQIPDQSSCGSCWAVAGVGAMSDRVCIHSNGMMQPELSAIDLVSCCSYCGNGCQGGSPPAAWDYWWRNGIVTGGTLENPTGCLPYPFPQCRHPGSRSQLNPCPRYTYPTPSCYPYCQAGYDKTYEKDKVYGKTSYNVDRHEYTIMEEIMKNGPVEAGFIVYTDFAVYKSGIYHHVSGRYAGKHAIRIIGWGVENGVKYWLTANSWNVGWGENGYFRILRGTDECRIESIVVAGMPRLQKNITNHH
Description: (§1) Recombinant peptidases were assayed for enzymatic activity using a fluorogenic substrate assay. The reactions were carried out in 0.1 M C-P buffer (pH 7.0) with 1 mM DTT in a final volume of 200 μL, in a black 96-well plate. Each well contained activated enzyme (140 nM) and 20 μM fluorogenic substrate, which was added to start the reaction. All assays were run in triplicate at 37 °C for 1 h. Enzyme activity was monitored by rate of hydrolysis and subsequent release of the AMC group on the synthetic peptide substrates at an excitation wavelength of 370 nm and an emission wavelength of 460 nm, as relative fluorescence units (RFU), in a PolarStar Omega Spectrophotometer (BMG Labtech, Aylesbury, UK). All data were plotted and analysed using MARS Data Analysis Software (BMG Labtech, UK) and GraphPad Prism version 5.
(§2) Commercially available inhibitors of cathepsin B (Ca074 and Ca074-OMe), cathepsin L (L, L1, LII, LIII and LIV), cathepsin K (KI, KII and KIII) and cathepsin S were purchased from Merck Millipore (Cork, Ireland; Supplementary Figure S2). The broad-spectrum papain peptidase inhibitor Z-Phe-Ala-FMK was purchased from Enzo Life Sciences (Exeter, UK). These were used to determine and compare the inhibition constant (Ki) against the recombinant FhCBs and FhCL3. All the assays were carried out in 0.1 M C-P buffer with 1 mM DTT and 0.01% Brij® L23, at the pH corresponding to the optimum for each enzyme in a total 200 µL reaction volume. The peptidases (140 nM) were pre-incubated with the inhibitor (1000-15 nM) at room temperature, for 30 min, before starting the reaction by the addition of the substrate that was optimal for each enzyme (FhCB1, Z-Phe-Arg-AMC; FhCB2 and FhCB3, Z-Val-Ile-Arg-AMC; FhCL3, Z-Gly-Pro-Arg-AMC). Substrate concentrations were equal to KM (shown in Table 1) and the apparent inhibition constant (Ki^app) values were calculated with GraphPad Prism 5, using the Morrison equation for tight binding inhibition (Equation (3)). For competitive inhibitors, such as those used in this study, Ki^app was fitted to a second equation (Equation (4)) from which Ki can be determined. (3) vi/vo=1−([E])+[I]+Kiapp)−([E]+[I]+Kiapp)^2−4[E][I] /2[E] (4) Kiapp=Ki(1+[S]/KM)

cathepsin L1 (HsCL1) = biological target: T1, cathepsin L1 (HsCL1) (Homo sapiens, UniProt P07711); assay: Inhibitor screen against human cathepsin L1 control; type: biochemical
T1 construct: purchased Sigma-Aldrich; host or cells: human embryonic kidney cells
T1 sequence (P07711 114-333): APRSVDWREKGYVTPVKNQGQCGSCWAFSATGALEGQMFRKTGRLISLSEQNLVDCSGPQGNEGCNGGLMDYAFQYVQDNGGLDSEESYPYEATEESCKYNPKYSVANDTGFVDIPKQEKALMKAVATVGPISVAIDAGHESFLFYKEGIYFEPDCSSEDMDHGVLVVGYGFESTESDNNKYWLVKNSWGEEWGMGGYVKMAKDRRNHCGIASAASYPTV
Description: The Schistosoma mansoni cathepsin B1 (SmCB1) was also produced in our laboratory using P. pastoris as described above. The human cathepsin B (HsCB) and cathepsin L1 (HsCL1) were produced in human embryonic kidney cells (Sigma-Aldrich).
as §2
A panel of 12 commercially available cysteine peptidase inhibitors that preferentially target mammalian cathepsin B (Ca074 and Ca074-OMe), cathepsin L (L, L1, LII, LIII and LIV) cathepsin S (S) and cathepsin K (KI, KII and KIII) were screened against the FhCBs, FhCL3 and, as controls, HsCB and HsCL1. The broad-range cysteine peptidase inhibitor Z-Phe-Ala-FMK was also included (Figure 5).
Figure 5 Profile of inhibition of FhCB1, FhCB2, FhCB3 and FhCL3. Commercially available inhibitors of cathepsin B (Ca074 and Ca07a-OMe), cathepsin L (L, L1, LII, LIII and LIV), cathepsin K (KI, KII and KIII), cathepsin S and the broad-spectrum papain peptidase inhibitor Z-Phe-Ala-FMK (A–L) were used to determine and compare the inhibition constant against recombinants FhCB1, FhCB2, FhCB3, FhCL3, HsCB and HsCL1. Activity is represented as the percentage of enzymatic activity observed by hydrolysis of a fluorogenic quenched peptide substrate following a pre-incubation with inhibitor in relation to the activity of the enzyme alone. Error bars indicate standard deviation of three replicates.

FhCB3 = FhCB3 (Fasciola hepatica, UniProt A7UNB2); assay: Inhibition of recombinant FhCB3, fluorogenic substrate assay (Z-Val-Ile-Arg-AMC); type: biochemical; settings: for inhibition of enzymatic activity (inhibitor screen, Figure 5), in words: FhCB3, inhibitor 1000-15 nM
Sequence of FhCB3 (A7UNB2 entry or part of it): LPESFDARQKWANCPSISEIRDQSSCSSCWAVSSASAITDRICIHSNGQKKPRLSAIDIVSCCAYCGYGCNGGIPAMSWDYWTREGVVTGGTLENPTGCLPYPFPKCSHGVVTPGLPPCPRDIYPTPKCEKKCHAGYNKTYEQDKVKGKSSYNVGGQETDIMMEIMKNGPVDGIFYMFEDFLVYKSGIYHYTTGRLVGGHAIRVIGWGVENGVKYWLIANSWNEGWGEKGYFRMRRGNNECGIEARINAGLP
Description: as §1, §2

[2] = tested on: Cc1cc(=O)oc2cc(NC(=O)[C@H](CCCNC(=N)N)NC(=O)[C@@H]3CCCN3C(=O)CNC(=O)OCc3ccccc3)ccc12; assay: purified protein, by the assay type; settings: substrate 2000–4 μM, optimum pH, ± standard deviation, pH 7.0, 37.0 °C
Description: as §3

[3] = tested on: CC[C@H](C)[C@H](NC(=O)[C@@H](NC(=O)OCc1ccccc1)C(C)C)C(=O)N[C@@H](CCCNC(=N)N)C(=O)Nc1ccc2c(C)cc(=O)oc2c1; assay: purified protein, by the assay type; settings: other: FhCB3; substrate 2000–4 μM, optimum pH; ± standard deviation; pH 7.0; 37.0 °C
Description: as §3

FhCL3 = FhCL3 (Fasciola hepatica, UniProt A0A879R2T5); assay: Inhibition of recombinant FhCL3, fluorogenic substrate assay (Z-Gly-Pro-Arg-AMC); type: biochemical; settings: for inhibition of enzymatic activity (inhibitor screen, Figure 5), in words: FhCL3, inhibitor 1000-15 nM
Sequence of FhCL3 (A0A879R2T5 entry or part of it): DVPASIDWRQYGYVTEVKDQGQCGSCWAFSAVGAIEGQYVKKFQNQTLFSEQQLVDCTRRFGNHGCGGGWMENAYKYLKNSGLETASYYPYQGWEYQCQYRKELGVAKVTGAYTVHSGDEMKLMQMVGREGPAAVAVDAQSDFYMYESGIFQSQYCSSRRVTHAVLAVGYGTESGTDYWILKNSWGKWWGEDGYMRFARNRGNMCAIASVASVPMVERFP
Description: as §1, §2

FhCB2 = FhCB2 (Fasciola hepatica, UniProt A5X493); assay: Inhibition of recombinant FhCB2, fluorogenic substrate assay (Z-Val-Ile-Arg-AMC); type: biochemical; settings: for inhibition of enzymatic activity (inhibitor screen, Figure 5), in words: FhCB2, inhibitor 1000-15 nM
Sequence of FhCB2 (A5X493 entry or part of it): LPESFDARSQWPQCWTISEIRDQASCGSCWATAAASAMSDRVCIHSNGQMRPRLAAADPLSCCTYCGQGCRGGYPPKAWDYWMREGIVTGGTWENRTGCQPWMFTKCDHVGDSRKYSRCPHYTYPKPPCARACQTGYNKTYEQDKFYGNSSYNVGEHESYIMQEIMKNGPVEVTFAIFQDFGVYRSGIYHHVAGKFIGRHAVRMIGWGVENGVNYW
Description: as §1, §2

Molecule	inhibition of enzymatic activity (inhibitor screen, Figure 5), in words (FhCB1)	inhibition of enzymatic activity (inhibitor screen, Figure 5), in words (cathepsin L1 (HsCL1))	inhibition of enzymatic activity (inhibitor screen, Figure 5), in words (FhCB3)	inhibition of enzymatic activity (inhibitor screen, Figure 5), in words (FhCL3)	inhibition of enzymatic activity (inhibitor screen, Figure 5), in words (FhCB2)	also measured
FhCB1 (Fasciola hepatica)						Km ([1]; other: FhCB1): 69 ± 5 µM; kcat ([1]; other: FhCB1): 1.0 ± 0.2 s⁻¹; kcat/Km ([1]; other: FhCB1): 13,596 M^-1S^-1
O=C(NC(Cc1ccccc1)C(=O)NC(Cc1ccccc1)C(=O)CF)OCc1ccccc1 (stereo not drawn) [Inhibitor L1] (Cbz-Phe-Phe-CH2F; configuration not given here)	most effective at blocking	specificity for HsCL1 over HsCBs	most effective at blocking			
FhCB3 (Fasciola hepatica)						Km ([2]; other: FhCB3): 40 ± 4 µM; kcat ([2]; other: FhCB3): 0.02 ± 0.002 s⁻¹; kcat/Km ([2]; other: FhCB3): 579 M^-1S^-1; Km ([1]; other: FhCB3): 27 ± 2 µM; kcat ([1]; other: FhCB3): 0.05 ± 0.007 s⁻¹; kcat/Km ([1]; other: FhCB3): 1708 M^-1S^-1; Km [3]: 42 ± 4 µM; kcat [3]: 0.1 ± 0.004 s⁻¹; kcat/Km [3]: 2266 M^-1S^-1
O=C(NCc1ccccc1)C(Cc1ccccc1)NC(=O)C1OC1C(=O)NCCc1ccc(O)cc1 (centres unmarked) [L]	did not inhibit	specificity for HsCL1 over HsCBs	significantly reduced	significantly reduced	did not inhibit	
CC(C)C[C@H](NC(=O)OCc1ccccc1)C(=O)NCC(=O)CNC(=O)[C@H](CC(C)C)NC(=O)OCc1ccccc1 [KI]	generally poor inhibitors		reduced	reduced	generally poor inhibitors; also recorded: not inhibited	
COc1ccc(C(=O)ONC(=O)CNC(=O)C(Cc2ccccc2)NC(=O)OCc2ccccc2)cc1 (centres unmarked) [LIII]		specificity for HsCL1 over HsCBs				
CC[C@H](C)[C@H](NS(=O)(=O)c1cccc2ccccc12)C(=O)N[C@H](C=O)Cc1c[nH]c2ccccc12 [LIV]		specificity for HsCL1 over HsCBs				
CC(C)C[C@H](NC(=O)OCc1ccccc1)C(=O)NNC(=O)NNC(=O)[C@H](CC(C)C)NC(=O)C(N)Cc1ccccc1 (some centres unmarked) [KIII]	weak inhibitors; also recorded: generally poor inhibitors		abrogated the activity; also recorded: reduced	reduced	no effect; also recorded: generally poor inhibitors; also recorded: not inhibited	
CC(C)C[C@H](NC(=O)OCc1ccccc1)C(=O)NNC(=O)NNC(=O)[C@H](CC(C)C)NC(=O)C(Cc1ccccc1)NC(=O)OC(C)(C)C (some centres unmarked) [KII]	weak inhibitors; also recorded: generally poor inhibitors		abrogated the activity; also recorded: reduced	reduced	no effect; also recorded: generally poor inhibitors; also recorded: not inhibited	Ki (FhCB1; recombinant FhCB1 140 nM, 30 min pre-incubation, substrate Z-Phe-Arg-AMC at KM, optimum pH, ± SEM, read-out: inhibition constant Ki): 466 ± 40.6 nM; Ki (FhCL3; recombinant FhCL3 140 nM, 30 min pre-incubation, substrate Z-Gly-Pro-Arg-AMC at KM, optimum pH, ± SEM, read-out: inhibition constant Ki): 0.7 ± 0.19 nM; Ki (FhCB3; recombinant FhCB3 140 nM, 30 min pre-incubation, substrate Z-Val-Ile-Arg-AMC at KM, optimum pH, ± SEM, read-out: inhibition constant Ki): 227 ± 28.3 nM; Ki (FhCB2; recombinant FhCB2 140 nM, 30 min pre-incubation, substrate Z-Val-Ile-Arg-AMC at KM, optimum pH, ± SEM, read-out: inhibition constant Ki): > 1000 nM
FhCL3 (Fasciola hepatica)						Km ([2]; other: FhCL3): 27 ± 2 µM; kcat ([2]; other: FhCL3): 0.5 ± 0.07 s⁻¹; kcat/Km ([2]; other: FhCL3): 17,960 M^-1S^-1

Reference: publication PMC8698070, “The Zoonotic Helminth Parasite Fasciola hepatica: Virulence-Associated Cathepsin B and Cathepsin L Cysteine Peptidases Secreted by Infective Newly Excysted Juveniles (NEJ)” (Animals : an Open Access Journal from MDPI, 2021)
